Laboratory results: patent US11548913B2, “Therapeutic compositions including peptides and uses thereof” (Stealth BioTherapeutics Inc., priority 2015, dated 2023)
“Also recorded” adds a separate entry of the source. Square brackets hold non-standard residues; d marks the D form. Peptide text beside a SMILES is read from it. Dmt = Cc1cc(O)cc(C)c1C[C@H](N)C(=O)O; dOrn = NCCC[C@@H](N)C(=O)O

Experiments:
[1] = system: Excised Sprague-Dawley rat hearts; test: Modified Langendorff rat heart model, ischemia/reperfusion with peptide in the reperfusion buffer (Example 1); details: 1 μM peptide in Krebs buffer during 2 hours reperfusion after 20 min global no-flow ischemia; compared to controls
Method: (§1) The Langendorff rodent heart model is widely employed in studies of myocardial function and responses to injury (e.g., ischemia). For whole-heart studies, male Sprague-Dawley rats (7-9 weeks old) were injected with pentobarbital (35 mg/kg, ip injection) and hearts were excised with midline thoracotomy. The aortas were secured around a cannula of a modified Langendorff apparatus and retrogradely perfused (perfusion pressure of 75 mm Hg) with a modified Krebs-Henseleit buffer containing (in mM): 118 NaCl, 24 NaHCO3, 4.75 KCl, 1.2 KH2PO4, 1.2 MgSO4, 2.0 CaCl2, and 10 glucose (gassed with 95/5% O2/CO2). Hearts were bathed in a buffer-filled perfusion chamber maintained at 37° C. for the duration of the experiments. Following the initiation of perfusion, hearts were instrumented for the simultaneous observation of mechanical and electrical function. A buffer-filled latex balloon (size 5, Harvard Apparatus, Holliston, Mass., USA), calibrated at the beginning of each day using a digital manometer, was inserted into the left ventricle (via the mitral valve) for the measurement of left ventricular developed pressure (LVDP), with balloon volume adjusted to establish a diastolic pressure of 5-8 mm Hg. Three electrodes were placed into the buffer filled perfusion chamber for the measurement of the volume-conducted electrocardiogram (ECG). Coronary flow rates were monitored constantly with a flow probe (Transconic Systems, Ithaca, N.Y., USA) connected in series with the perfusion line, and normalized to heart wet weight (in grams) at the end of each experiment. All physiological parameters were continuously monitored and stored on a personal computer using commercially available software (Chart, AD Instruments, Colorado Springs, Colo., USA). Heart rate was calculated using the LVDP trace, and maximal rates of contraction(+dP/dt) and relaxation (−dP/dt) were calculated using the derivative of the LVDP trace.
Following a 10 minute baseline period, ischemia/reperfusion was initiated. Hearts were exposed to global no-flow ischemia by stopping perfusion for 20 min. At the end of the index ischemia, static buffer from the perfusion lines was washed out (via an accessory port proximal to the aortic cannula), and reperfusion ensued for 2 hours either with Krebs buffer alone (control) or Krebs buffer containing an experimental peptide at a concentration of 1 μM. Peptides tested included D-Arg-D-Dmt-D-Lys-L-Phe-NH2 (SBT-46), D-Arg-L-DMT-L-Ala-L-Phe-NH2 (SBT-68), (Ac)-D-Arg-L-DMT-L-Lys-L-Phe-NH2 (SBT-85), D-Arg-L-Dmt-L-His-L-Phe-NH2(SBT-100), D-Arg-L-DMT-L-Orn-L-Phe-NH2 (SBT-102), D-Orn-L-DMT-L-Lys-L-Phe-NH2(SBT-131), D-(Amidine)Arg(propylamine)-L-DMT-L-Lys-L-Phe-NH2 (SBT-140), and D-Arg(butylamidine analog)-L-DMT-L-Lys-L-Phe-NH2(SBT-149). At the end of reperfusion, the left ventricle was dissected, sliced into 5 mm-thick slices, incubated in 1% triphenyltetrazolium chloride (TTC) for 10 min (37° C.) and digitally photographed for subsequent infarct size analysis. Infarct size was expressed as a percentage of the left ventricle (% area at risk (AAR))(calculated using ImageJ software, NIH, Bethesda, Md., USA).

excised rat hearts = test: Modified Langendorff rat heart model, peptide pre-treatment before ischemia/reperfusion (Example 2); details: hearts bathed 2 hours in 1 μM peptide before 20 min ischemia and 2 hours reperfusion; vs SBT-46, SBT-102 and controls; anticipated
Method: as §1, with “are” for “were”, “USA), which is” for “USA),”, “is” for “was”
Prior to the initiation of ischemia/reperfusion, the excised rat hearts are bathed in buffer containing an experimental peptide at a concentration of 1 μM or buffer alone (control) for two hours. The experimental peptide is selected from D-Arg-D-Dmt-D-Lys-L-Phe-NH2 (SBT-46), D-Arg-L-DMT-L-Ala-L-Phe-NH2 (SBT-68), (Ac)-D-Arg-L-DMT-L-Lys-L-Phe-NH2 (SBT-85), D-Arg-L-Dmt-L-His-L-Phe-NH2(SBT-100), D-Arg-L-DMT-L-Orn-L-Phe-NH2 (SBT-102), D-Orn-L-DMT-L-Lys-L-Phe-NH2(SBT-131), D-(Amidine)Arg(propylamine)-L-DMT-L-Lys-L-Phe-NH2(SBT-140), and D-Arg(butylamidine analog)-L-DMT-L-Lys-L-Phe-NH2 (SBT-149). Following a 10 minute baseline period, ischemia/reperfusion is initiated. Hearts are exposed to global no-flow ischemia by stopping perfusion for 20 min. At the end of the index ischemia, static buffer from the perfusion lines is washed out (via an accessory port proximal to the aortic cannula), and reperfusion ensues for 2 hours with Krebs buffer. At the end of reperfusion, the left ventricle is dissected, sliced into 5 mm-thick slices, incubated in 1% triphenyltetrazolium chloride (TTC) for 10 min (37° C.) and digitally photographed for subsequent infarct size analysis. Infarct size is expressed as a percentage of the left ventricle (% area at risk (AAR))(calculated using ImageJ software, NIH, Bethesda, Md., USA).

In the case of `Cc1cc(O)cc(C)c1C[C@H](NC(=O)[C@H](N)CCCN)C(=O)N[C@@H](CCCCN)C(=O)N[C@@H](Cc1ccccc1)C(N)=O` [SBT-131, D-Orn-L-DMT-L-Lys-L-Phe-NH2] (H-[dOrn][Dmt]KF-NH2), the “attenuation of cardiac ischemia injury and ischemia-reperfusion injury” value [1] is reported as “able to attenuate cardiac ischemia injury and ischemia-reperfusion injury; also recorded: attenuation of cardiac ischemia-reperfusion injury”, the “infarct size expressed as a percentage of area at risk (AAR)” value [1] is reported as “reduced infarct size” and the “left ventricular developed pressure (LVDP)” value [1] is reported as “increased LVDP”. The “maximal rates of contraction (+dP/dt)” value [1] was “increased maximal rates of contraction”, the “maximal rates of relaxation (−dP/dt)” value [1] was “increased maximal rates of relaxation” and the LVDP (excised rat hearts) was “increased LVDP”. The infarct size (excised rat hearts) was “reduced infarct size”, the “maximal rates of contraction (+dP/dt)” value (excised rat hearts) was “increased maximal rates of contraction” and the “maximal rates of relaxation (−dP/dt)” value (excised rat hearts) was “increased maximal rates of relaxation”.

For `Cc1cc(O)cc(C)c1C[C@H](NC(=O)[C@H](N)CCCCC(=N)N)C(=O)N[C@@H](CCCCN)C(=O)N[C@@H](Cc1ccccc1)C(N)=O` [SBT-149, D-Arg(butylamidine analog)-L-DMT-L-Lys-L-Phe-NH2], the “attenuation of cardiac ischemia injury and ischemia-reperfusion injury” value [1] was “able to attenuate cardiac ischemia injury and ischemia-reperfusion injury; also recorded: attenuation of cardiac ischemia-reperfusion injury”, the “infarct size expressed as a percentage of area at risk (AAR)” value [1] was “reduced infarct size” and the “left ventricular developed pressure (LVDP)” value [1] was “increased LVDP”. For the same molecule, the “maximal rates of contraction (+dP/dt)” value [1] was “increased maximal rates of contraction”, the “maximal rates of relaxation (−dP/dt)” value [1] was “increased maximal rates of relaxation” and the LVDP (excised rat hearts) was “increased LVDP”. For the same molecule, the infarct size (excised rat hearts) was “reduced infarct size”, the “maximal rates of contraction (+dP/dt)” value (excised rat hearts) was “increased maximal rates of contraction” and the “maximal rates of relaxation (−dP/dt)” value (excised rat hearts) was “increased maximal rates of relaxation”.
